Test results from patent US11882830B2, “Pesticidal mixture comprising a carboxamide compound and a biopesticide” (priority 2015, dated 2024).

Experiments:
southern armyworm = experiment: Lepidopteran efficacy: neonate southern armyworm via lima bean leaf dip; assay type: in vivo; conditions: Spodoptera eridania, foliar, 96 h, broflanilide @ 0.0025 ppm, 4 DAT, read-out: Mean % Mortality @ Days after Treatment 4 DAT
Description: (§1) Synergism can be described as an interaction where the combined effect of two or more compounds is greater than the sum of the individual effects of each of the compounds.
(§2) When the observed combined control effect is greater than the expected combined control effect (E), then the combined effect is synergistic.
(§3) Large leaf lima bean (southern armyworm) and radish (diamondback moth) were dipped in treatment solution and allowed to dry. The leaves were excised and placed individually into square petri dishes containing two filter paper discs moistened with 0.5 ml of reverse osmosis water. One neonate insect per dish (total of 20 dishes per treatment, grouped into 5 dishes per replicate) were infested for the test with southern armyworm. Five insects per dish (total of 5 dishes per treatment) were infested for the test with diamondback moth. The studies were held in an environmental chamber 14 L: 10 D at 30° C. and 70% RH. The number of dead and moribund insects were recorded (moribund was considered dead). Rate rundowns were conducted initially to determine sublethal rates for the combination testing.
(§4) 5 replications with 5 insects are each conducted per treatment, insects are held singly.
(§5) Control mortality is less than 15% and standard treatments yielded 100% mortality.

diamondback moth = experiment: Lepidopteran efficacy: neonate diamondback moth via radish leaf dip; assay type: in vivo; conditions: Plutella xylostella, foliar, 48 h, broflanilide @ 0.01 ppm, 2 DAT, read-out: Mean % Mortality @ Days after Treatment 2 DAT
Description: as §1, §2, §3, §4, §5

For `CN(C(=O)c1ccccc1)c1cccc(C(=O)Nc2c(Br)cc(C(F)(C(F)(F)F)C(F)(F)F)cc2C(F)(F)F)c1F` [broflanilide], the mortality at 0.0025 ppm (southern armyworm) was 23.5% and the mortality at 0.01 ppm (diamondback moth) was 44%.
